Holding throughout (experiment): NCI tumour cell line growth inhibition, 48 h
Assay [1] relates to CAKI-1.
Assay [2] deals with CCRF-CEM.
Assay [3] deals with DU-145.
Assay [4] relates to EKVX.
The subject of assay [5] is HCT-116.
Assay [6] concerns HL-60.
Assay [7] deals with K562.
The subject of assay [8] is KM12.
In assay [9] the test system is MDA-MB-435.
The test system of assay [10] is NCI-H23.
Assay [11] concerns NCI-H460.
Assay [12] relates to OVCAR-4.
Assay [13] concerns OVCAR-5.
Assay [14] has as its system OVCAR-8.
Assay [15] concerns RPMI-8226.
The test system of assay [16] is RXF 393.
Assay [17] deals with SF-268.
Assay [18] relates to SK-MEL-28.
For assay [19], the system named is SK-MEL-5.
Assay [20] has as its system SW-620.

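How tested: cells in 96-well plates exposed to compound for 48 hours at five concentrations. The concentration for 50% growth inhibition is given as GI50.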 Calls of active or inactive are those of the source. No stated cut-off is given here; in the data, active = GI50 up to about 1.1 µM and inactive = higher.

In the case of `O=C(CCN1CCN2c3ccccc3CCC2C1)c1ccc(F)cc1` (stereo not given), the GI50 in assay [1] was 23.3 µM (inactive); in assay [2], 36.6 µM (inactive); in [3], 30.1 µM (inactive); in [4], 27.5 µM (inactive); in assay [5], 37.5 µM (inactive); in assay [6], 28.5 µM (inactive). The GI50 in assay [7] is 30.2 µM (inactive); in assay [8], 41.1 µM (inactive); in assay [9] it was 24 µM (inactive); in assay [10], 36.1 µM (inactive); in assay [11] it was 47.1 µM (inactive); in assay [12], 20 µM (inactive). Further, the GI50 is 23.1 µM (inactive) in [13]; 41.5 µM (inactive) in [14]; 28.9 µM (inactive) in assay [15]; 20.6 µM (inactive) in assay [16]; 46.9 µM (inactive) in assay [17]; 14.7 µM (inactive) in assay [18]. Further, the GI50 is 22.5 µM (inactive) in assay [19] and 10.3 µM (inactive) in assay [20].

Take `Cc1cc2c(cc1C(=O)CCC(=O)O)CC1(C2)Cc2cc(C)c(C(=O)CCC(=O)O)cc2C1`: the GI50 in assay [1], in [2], in [3], in [4], in assay [5] and in assay [6] was > 100 µM (inactive) in each case. Further, the GI50 in [7], in assay [8], in assay [9], in assay [10], in [11] and in assay [12] was > 100 µM (inactive) throughout. The GI50 in [13], in [14], in [15], in [16], in [17] and in assay [18] was > 100 µM (inactive) in each case. In addition, the GI50 in [19] and in assay [20] was > 100 µM (inactive) in each case.

With `Cc1nc2ccc(S(=O)(=O)NS(=O)(=O)c3ccc(-c4ccccc4)cc3)cc2c(=O)n1NS(=O)(=O)c1ccc(-c2ccccc2)cc1`, the GI50 in [1] was > 100 µM (inactive); in [2], > 100 µM (inactive); in [3], > 100 µM (inactive); in [4], 68.2 µM (inactive); in assay [5], > 100 µM (inactive); in assay [6] it was > 100 µM (inactive). Also, the GI50 in [7] was > 100 µM (inactive); in assay [8], > 100 µM (inactive); in assay [9], > 100 µM (inactive); in assay [10] it was > 100 µM (inactive); in assay [11], > 100 µM (inactive); in assay [12], 60 µM (inactive). Further, the GI50 is > 100 µM (inactive) in assay [13]; 77.4 µM (inactive) in [14]; > 100 µM (inactive) in assay [15]; > 100 µM (inactive) in [16]; > 100 µM (inactive) in [17]; > 100 µM (inactive) in assay [18]. For the same molecule, the GI50 in assay [19] and in [20] was > 100 µM (inactive) in each case.

Take `C=CCSc1nnc2cc(CN3CCCC3)c(-c3ccc(Cl)cc3)nn12`: the GI50 in assay [1] is 26.5 µM (inactive); in assay [2], 45.1 µM (inactive); in assay [3] it was 20.3 µM (inactive); in [4] it was 19 µM (inactive); in [5], 14.5 µM (inactive); in [6], 17.9 µM (inactive). The GI50 in [7] was 34.7 µM (inactive); in assay [8], 24.8 µM (inactive); in [9] it was 20 µM (inactive); in assay [10], 23.7 µM (inactive); in [11], 17.9 µM (inactive); in assay [12], 20.3 µM (inactive). The GI50 in [13] was 18.3 µM (inactive); in assay [14], 23.3 µM (inactive); in assay [15], 39.1 µM (inactive); in assay [16], 15.1 µM (inactive); in [17], 20.8 µM (inactive); in [18] it was 20 µM (inactive). Besides, the GI50 in assay [19] is 15.5 µM (inactive); in assay [20] it was 26.5 µM (inactive).

`O=C1/C(=c2\c3ccccc3n3c(=O)c4ccccc4nc23)Nc2ccccc21` [CANDIDINE]: the GI50 in [1] was > 100 µM (inactive); in [2] it was > 100 µM (inactive); in assay [3] it was > 100 µM (inactive); in assay [4] it was > 88.9 µM (inactive); in [5], > 100 µM (inactive); in [6], > 10 µM (inactive). Moreover, the GI50 in assay [7] was > 84.5 µM (inactive); in [8], > 59.7 µM (inactive); in assay [9], 18.5 µM (inactive); in assay [10] it was > 64.9 µM (inactive); in assay [11], 43.5 µM (inactive); in assay [12], > 100 µM (inactive). In addition, the GI50 in assay [13] was > 100 µM (inactive); in assay [14], > 91.8 µM (inactive); in assay [15] it was > 100 µM (inactive); in assay [16], > 100 µM (inactive); in assay [17], 85.3 µM (inactive); in [18] it was > 100 µM (inactive). Further, the GI50 in [19] is > 53.8 µM (inactive); in assay [20], > 100 µM (inactive).

As for `C/C1=C\C=C(\C(C)C)CC/C(C(=O)O)=C\CC/C(C)=C/CC1` [NEOCROTOCEMBRANEIC ACID], the GI50 was 31.7 µM (inactive) in [1]; 19.5 µM (inactive) in assay [2]; 33.1 µM (inactive) in assay [3]; 27.1 µM (inactive) in [4]; 15.9 µM (inactive) in assay [5]; 24.8 µM (inactive) in assay [6]. The GI50 in assay [7] is 26.1 µM (inactive); in [8], 20.6 µM (inactive); in assay [9], 23.6 µM (inactive); in assay [10], 20.7 µM (inactive); in assay [11] it was 17.7 µM (inactive); in assay [12] it was 33.4 µM (inactive). Moreover, the GI50 in assay [13] is 29.3 µM (inactive); in assay [14], 31.2 µM (inactive); in [15] it was 19.3 µM (inactive); in assay [16], 20.7 µM (inactive); in [17] it was 32.9 µM (inactive); in [18] it was 24.6 µM (inactive). The values for the GI50 in assay [19] and in assay [20] were 19.3 µM (inactive) and 35.8 µM (inactive), respectively.

Turning to `Cc1c(N(C)C)ccc2c(=O)c3cccc(CC(=O)O)c3oc12`, the GI50 was > 100 µM (inactive) in assay [1]; > 100 µM (inactive) in [2]; > 100 µM (inactive) in assay [3]; > 100 µM (inactive) in [4]; > 100 µM (inactive) in assay [5]; 97.9 µM (inactive) in assay [6]. Also, the GI50 in assay [7], in [8], in assay [9], in [10], in [11] and in assay [12] was > 100 µM (inactive) in each case. In addition, the GI50 in assay [13], in [14], in assay [15], in assay [16], in [17] and in assay [18] was > 100 µM (inactive) in each case. For the same molecule, the GI50 in [19] was > 75.3 µM (inactive); in [20], > 33.3 µM (inactive).

For the molecule `CCN1CCC(O)(c2ccc(Oc3ccc(C)cc3)cc2)C(C(=O)c2ccc(Oc3ccc(C)cc3)cc2)C1` (stereo not given), the GI50 was 12.9 µM (inactive) in assay [1]; 5.13 µM (inactive) in assay [2]; 7.28 µM (inactive) in [3]; 15.6 µM (inactive) in assay [4]; 6.41 µM (inactive) in [5]; 1.68 µM (inactive) in [6]. Further, the GI50 was 2.95 µM (inactive) in assay [7]; 6.37 µM (inactive) in assay [8]; 11.6 µM (inactive) in assay [9]; 13.7 µM (inactive) in [10]; 3.28 µM (inactive) in [11]; 1.94 µM (inactive) in assay [12]. For the same molecule, the GI50 was 13.9 µM (inactive) in [13]; 13.7 µM (inactive) in assay [14]; 1.48 µM (inactive) in assay [15]; 2.81 µM (inactive) in assay [16]; 17 µM (inactive) in assay [17]; 11.2 µM (inactive) in assay [18]. Further, the values for the GI50 in [19] and in [20] were 8.04 µM (inactive) and 12.9 µM (inactive), respectively.

With `COc1ccc(-c2c(-c3ccccc3)c(C)nc3[nH]c(=S)[nH]c(=S)c23)cc1OC`, the GI50 in [1] is 47 µM (inactive); in assay [2], 24.7 µM (inactive); in assay [3] it was 44.4 µM (inactive); in assay [4], 54.8 µM (inactive); in assay [5], 22 µM (inactive); in assay [6], 31.8 µM (inactive). Besides, the GI50 in assay [7] is 31.2 µM (inactive); in assay [8], 18.5 µM (inactive); in assay [9] it was 26.9 µM (inactive); in assay [10], 47.4 µM (inactive); in assay [11], 24.3 µM (inactive); in assay [12] it was > 100 µM (inactive). Further, the GI50 in assay [13] is 64.4 µM (inactive); in [14], 42 µM (inactive); in [15] it was 21.6 µM (inactive); in assay [16], 35.8 µM (inactive); in [17] it was 23.9 µM (inactive); in assay [18], 22.1 µM (inactive). In addition, the values for the GI50 in assay [19] and in assay [20] were 28.1 µM (inactive) and 61.7 µM (inactive), respectively.

On to `COc1cc(OC)c(OC)cc1/C=C\c1ccnc2ccccc12`, for which the GI50 in [1] is 1.05 µM (active); in [2] it was 1.4 µM (inactive); in [3] it was 1.01 µM (active); in [4], 2.17 µM (inactive); in assay [5], 0.574 µM (active); in assay [6] it was 0.344 µM (active). Further, the GI50 in [7] was 0.282 µM (active); in assay [8], 0.675 µM (active); in [9] it was 0.156 µM (active); in assay [10], 0.832 µM (active); in assay [11] it was 0.555 µM (active); in assay [12], 4.51 µM (inactive). The GI50 in assay [13] was 7.23 µM (inactive); in assay [14] it was 1.25 µM (inactive); in [15], 0.577 µM (active); in assay [16] it was 0.466 µM (active); in assay [17] it was 0.838 µM (active); in assay [18], 0.782 µM (active). Moreover, the GI50 was 0.414 µM (active) in assay [19] and 0.679 µM (active) in [20].

The values above are taken from ChEMBL document CHEMBL1201862, “PubChem BioAssay data set” (2004).
